Remaining activity data for 26 molecules are collected here from patent US10654802B2, “Indoline derivatives and method for using and producing the same” (ARIZONA BOARD OF REGENTS ON BEHALF OF THE UNIVERSITY OF …, priority 2016, dated 2020).

This test deals with T1, Nox4 (Homo sapiens, UniProt Q9NPH5).
T1 construct: expressed in transfected cells
T1 sequence (Q9NPH5 1-578): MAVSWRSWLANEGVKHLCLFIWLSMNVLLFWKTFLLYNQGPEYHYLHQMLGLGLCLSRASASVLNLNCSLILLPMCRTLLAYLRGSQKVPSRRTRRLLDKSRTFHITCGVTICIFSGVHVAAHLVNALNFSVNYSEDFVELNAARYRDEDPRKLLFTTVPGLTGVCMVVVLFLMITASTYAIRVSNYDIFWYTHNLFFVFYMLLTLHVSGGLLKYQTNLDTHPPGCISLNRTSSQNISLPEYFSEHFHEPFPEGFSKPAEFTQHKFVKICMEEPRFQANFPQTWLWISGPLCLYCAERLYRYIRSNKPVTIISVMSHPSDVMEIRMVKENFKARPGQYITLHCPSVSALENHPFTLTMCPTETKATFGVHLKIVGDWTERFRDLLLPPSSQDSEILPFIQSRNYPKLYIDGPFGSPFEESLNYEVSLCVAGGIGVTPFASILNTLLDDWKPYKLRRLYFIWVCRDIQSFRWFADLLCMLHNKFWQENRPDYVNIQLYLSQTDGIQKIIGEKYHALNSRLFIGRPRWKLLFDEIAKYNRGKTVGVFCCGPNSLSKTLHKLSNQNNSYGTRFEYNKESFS
T1 sequence (P13498 1-195 partner): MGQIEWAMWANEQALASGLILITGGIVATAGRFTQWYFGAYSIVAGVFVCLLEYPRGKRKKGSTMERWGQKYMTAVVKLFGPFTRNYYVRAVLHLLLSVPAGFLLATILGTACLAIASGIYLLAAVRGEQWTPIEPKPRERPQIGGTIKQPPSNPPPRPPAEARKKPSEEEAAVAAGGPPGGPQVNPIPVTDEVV
The test can be described thus: Inhibition of Nox4-dependent H2O2 production in HEK/Nox4 cells, Amplex Red assay. To be noted: 1 h, HEK/Nox4 cells, DMSO vehicle = 1.000, n = 3-10, read-out: H2O2 production relative to vehicle control, Mean; for remaining activity at 1 µM: 1 μM final concentration; for remaining activity at 5 µM: 5 μM final concentration; for remaining activity at 10 µM: 10 μM final concentration. Type of test: cell-based. Here is the method:
A high-throughput screening (HTS) assay was established for Nox4 inhibition, utilizing HEK293 cells that stably over-express Nox4 (HEK/Nox4 cells), which generate high levels of H2O2(Cheng G et al, Gene: 2001, p. 131-140). Over 30,000 compounds have been screened and medicinal chemistry efforts have led to the synthesis of numerous analogs and the identification of a chemically distinct series of selective Nox4 inhibitors. […] IC-50 was evaluated for UANox048 (FIG. 1B).
HEK cells stably transfected to overexpress Nox4 were treated with varying concentrations of test compounds, DPI (all-Nox inhibitor positive control), or DMSO (vehicle control) and incubated for 1 h (FIG. 1). (FIG. 1A) H2O2 presence was evaluated by Amplex Red assay. […] Values represent means±SEM; n=4. P values were calculated by student's two-tailed t test. *p<0.05, **p<0.01, *** p<0.001.

With `CCN(CC)S(=O)(=O)NCC(C)N1CCc2cc(-c3cccc(OC)c3)ccc21` (stereo not drawn) [UANOX036, N-(2-(5-(3-methoxyphenyl)indolin-1-yl)propyl)-N,N-diethyl-1-sulfonamide], the remaining activity at 1 µM is 102%, the remaining activity at 5 µM was 83.2% and the remaining activity at 10 µM was found to be 74.7%.

With `CC(CNS(=O)(=O)N1CCN(C)CC1)N1CCc2ccccc21` (stereo not drawn) [UANOX037], the remaining activity at 1 µM stood at 97.2%, the remaining activity at 5 µM is 79.3% and the remaining activity at 10 µM was 77.3%.

Turning to `CCN(CC)S(=O)(=O)Nc1ccc(N2CCc3ccccc32)cc1` [UANOX038, N—(N,N-diethylaminosulfonyl)-4-(indolin-1-yl)aniline], the remaining activity at 1 µM was determined as 92.5%, the remaining activity at 5 µM came to 80% and the remaining activity at 10 µM was 63.5%.

Turning to `CC(CNS(=O)(=O)c1ccc(OC(F)(F)F)cc1)N1CCc2ccccc21` (stereo not drawn) [UANOX049, N-(2-(indolin-1-yl)propyl)-4-(trifluoromethoxy)benzenesulfonamide], the remaining activity at 1 µM turned out to be 87.1%, the remaining activity at 5 µM turned out to be 78.4% and the remaining activity at 10 µM came to 71.4%.

For `COc1ccc(-c2nc(C(=O)NCC(C)N3CCc4ccccc43)cs2)cc1` (stereo not drawn) [UANOX054, N-(2-(indolin-1-yl)propyl)-2-(4-(methoxy)phenyl)thiazole-4-carboxamide], the remaining activity at 1 µM worked out at 90.2%, the remaining activity at 5 µM turned out to be 87.6% and the remaining activity at 10 µM was found to be 82.4%.

For `CC(CNC(=O)c1csc(-c2ccccc2)n1)N1CCc2ccccc21` (stereo not drawn) [UANOX055, N-(2-(indolin-1-yl)propyl)-2-phenylthiazole-4-carboxamide], the remaining activity at 1 µM was determined as 90.2%, the remaining activity at 5 µM was found to be 90.8% and the remaining activity at 10 µM was 86.8%.

Turning to `CC(CNC(=O)c1csc(-c2ccc(C(F)(F)F)cc2)n1)N1CCc2ccccc21` (stereo not drawn) [UANOX056, N-(2-(indolin-1-yl)propyl)-2-(4-(trifluoromethyl)phenyl)thiazole-4-carboxamide], the remaining activity at 1 µM is 95.9%, the remaining activity at 5 µM came to 88.4% and the remaining activity at 10 µM amounted to 83.4%.

Turning to `O=S(=O)(c1ccc(OC(F)(F)F)cc1)N1CCN(CCN2CCc3ccccc32)CC1` [UANOX062, 1-(2-(4-((4-(trifluoromethoxy)phenyl)sulfonyl)piperazin-1-yl)ethyl)indoline], the remaining activity at 1 µM worked out at 88.7%, the remaining activity at 5 µM was 75.8% and the remaining activity at 10 µM was 66.4%.

With `CCN(CC)S(=O)(=O)N1CCN(CCN2CCc3ccccc32)CC1` [UANOX063, N,N-diethyl-4-(2-(indolin-1-yl)ethyl)piperazine-1-sulfonamide], the remaining activity at 1 µM stood at 90.2%, the remaining activity at 5 µM was found to be 71.9% and the remaining activity at 10 µM amounted to 66.5%.

Turning to `O=S(=O)(c1ccc(F)cc1)N1CCN(CCN2CCc3ccccc32)CC1` [UANOX064, 1-(2-(4-((4-fluorophenyl)sulfonyl)piperazin-1-yl)ethyl)indoline], the remaining activity at 1 µM came out at 86.3%, the remaining activity at 5 µM is 75.7% and the remaining activity at 10 µM is 72.4%.

For `CCN(CC)C(=O)N1CCN(CCN2CCc3ccccc32)CC1` [UANOX066], the remaining activity at 1 µM is 95.3%, the remaining activity at 5 µM is 72.2% and the remaining activity at 10 µM worked out at 73.1%.

Regarding `Fc1ccccc1CN1CCN(CCN2CCc3ccccc32)CC1` [UANOX067, 1-(2-(4-(2-fluorobenzyl)piperazin-1-yl)ethyl)indoline], the remaining activity at 1 µM was 93.9%, the remaining activity at 5 µM amounted to 91.2% and the remaining activity at 10 µM came to 85.1%.

With `CC(CNS(=O)(=O)c1ccc(Oc2ccc(C(F)(F)F)cn2)cc1)N1CCc2ccccc21` (stereo not drawn) [UANOX070, N-(2-(indolin-1-yl)propyl)-4-((5-(trifluoromethyl)pyridin-2-yl)oxy)benzenesulfonamide], the remaining activity at 1 µM is 91.4%, the remaining activity at 5 µM stood at 77.9% and the remaining activity at 10 µM was determined as 69.3%.

As for `CC(CNS(=O)(=O)c1ccc(Oc2ccccc2)cc1)N1CCc2ccccc21` (stereo not drawn) [UANOX071, N-(2-(indolin-1-yl)propyl)-4-phenoxybenzenesulfonamide], the remaining activity at 1 µM came to 90.8%, the remaining activity at 5 µM stood at 85.6% and the remaining activity at 10 µM amounted to 77%.

With `CC(CNS(=O)(=O)c1ccc(C#N)cc1)N1CCc2ccccc21` (stereo not drawn) [UANOX073], the remaining activity at 1 µM was determined as 94.2%, the remaining activity at 5 µM worked out at 75.9% and the remaining activity at 10 µM is 74.4%.

`O=S(=O)(NCCN1CCc2ccccc21)c1ccc(C(F)(F)F)cc1` [UANOX075, 4-trifluoromethyl-N-(2-(indolin-1-yl)ethyl)benzenesulfonamide]: the remaining activity at 1 µM is 82.3%, the remaining activity at 5 µM worked out at 72.1% and the remaining activity at 10 µM came out at 67.7%.

For `O=S(=O)(NCCN1CCc2ccccc21)c1ccc(OC(F)(F)F)cc1` [UANOX076, 4-trifluoromethoxy-N-(2-(indolin-1-yl)ethyl)benzenesulfonamide], the remaining activity at 1 µM amounted to 83.2%, the remaining activity at 5 µM is 72% and the remaining activity at 10 µM worked out at 66.2%.

For the molecule `O=S(=O)(NCCN1CCc2ccccc21)c1ccc(Oc2ccccc2)cc1` [UANOX079, N-(2-(indolin-1-yl)ethyl)-4-phenoxybenzenesulfonamide], the remaining activity at 1 µM was found to be 89.6%, the remaining activity at 5 µM came to 65.1% and the remaining activity at 10 µM amounted to 58.4%.

`O=S(=O)(NCCN1CCc2ccccc21)c1ccc(Oc2ccc(C(F)(F)F)cn2)cc1` [UANOX080, N-(2-(indolin-1-yl)ethyl)-4-((5-(trifluoromethyl)pyridin-2-yl)oxy)benzenesulfonamide]: the remaining activity at 1 µM stood at 85.5%, the remaining activity at 5 µM was found to be 60.1% and the remaining activity at 10 µM came to 49.1%.

`O=S(=O)(NCCN1CCc2ccccc21)c1ccc(F)c(F)c1` [UANOX081, 3,4-difluoro-N-(2-(indolin-1-yl)ethyl)benzenesulfonamide]: the remaining activity at 1 µM was 88.8%, the remaining activity at 5 µM is 67% and the remaining activity at 10 µM is 55.8%.

Turning to `N#Cc1ccc(S(=O)(=O)NCCN2CCc3ccccc32)cc1` [UANOX082, 4-cyano-N-(2-(indolin-1-yl)ethyl)benzenesulfonamide], the remaining activity at 1 µM was found to be 90.8%, the remaining activity at 5 µM amounted to 70.7% and the remaining activity at 10 µM was 60.6%.

As to `CCN(CC)S(=O)(=O)NCC(C)(C)N1CCc2ccccc21` [UANOX083, N—(N,N-diethylaminosulfonyl)-2-(indolin-1-yl)-2-methylpropane-1-amine], the remaining activity at 1 µM amounted to 82.3%, the remaining activity at 5 µM amounted to 73% and the remaining activity at 10 µM worked out at 66.5%.

As to `CC(C)(CNS(=O)(=O)c1ccc(C(F)(F)F)cc1)N1CCc2ccccc21` [UANOX084, N-(2-(indolin-1-yl)-2-methylpropyl)-4-(trifluoromethyl)benzenesulfonamide], the remaining activity at 1 µM is 90.3%, the remaining activity at 5 µM was 77.5% and the remaining activity at 10 µM amounted to 67.5%.

As to `CC(C)(CNS(=O)(=O)c1ccc(Oc2ccccc2)cc1)N1CCc2ccccc21` [UANOX085, N-(2-(indolin-1-yl)-2-methylpropyl)-4-phenoxybenzenesulfonamide], the remaining activity at 1 µM was found to be 92.7%, the remaining activity at 5 µM was found to be 83.5% and the remaining activity at 10 µM amounted to 73.6%.

Consider `CC(C)(CNS(=O)(=O)c1ccc(F)cc1)N1CCc2ccccc21` [UANOX086, 4-fluoro-N-(2-(indolin-1-yl)-2-methylpropyl)benzenesulfonamide], for which the remaining activity at 1 µM amounted to 90.7%, the remaining activity at 5 µM is 81.6% and the remaining activity at 10 µM came out at 71.4%.

As for `CC(C)(CNS(=O)(=O)c1ccc(F)c(F)c1)N1CCc2ccccc21` [UANOX087, 3,4-difluoro-N-(2-(indolin-1-yl)-2-methylpropyl)benzenesulfonamide], the remaining activity at 1 µM was 99.7%, the remaining activity at 5 µM was found to be 88.3% and the remaining activity at 10 µM came to 74.1%.
